The assay has as its system Musca domestica. Put plainly: Topical application of acetone solution to female adult Musca domestica, mortality after 24 hours. It is filed as in vivo. Particulars: 0.5 μL acetone solution on back of chest region, 25° C. As to the method:
After mixing the present compounds (1), (2), (3), (4), (5), and (6) with d-allethrin respectively, acetone solutions containing each mixture with the respective prescribed concentrations (w/v) listed in Table 2 were prepared. An adult Musca domestica was applied with 0.5 μL of the acetone solution dropped on the back side of its chest region, transferred to a plastic cup having about 9 cm diameter and about 4.5 cm height, and then left at 25° C. with being fed by 5% of aqueous sugar solution. […] The number of the Musca domesticas contained in each cup was 10, and the test was repeated twice.
Furthermore, after preparing acetone solutions containing each of the present compounds (1), (2), (3), (4), (5), and (6) and d-allethrin in the respective prescribed concentrations (w/v) listed in Table 2, a test was conducted as the same manner mentioned above.
For comparison, with using 4,5-methylenedioxy-2-propylphenyl2-butoxyethyl ether (hereinafter, referred to as a comparative compound)
[drawing 16] in place of the present compounds, a test was conducted in the same manner.

Where [1] appears, read: test compound 1.25 % (w/v) alone, d-allethrin 0 % (w/v).
[2] abbreviates: test compound 1.25 % (w/v) mixed with d-allethrin 0.25 % (w/v).

In the case of `C=CCc1cc2c(cc1OCCOC)OCO2` [The present compound (1), 5-(2-methoxyethoxy)-6-(2-propenyl)-1,3-benzodioxol], the mortality ratio by setting is: under setting [1], 0%; under setting [2], 100%. For `C=CCc1cc2c(cc1OCCOCCC)OCO2` [The present compound (5), 5-{2-(propyloxy)ethoxy}-6-(2-propenyl)-1,3-benzodioxol], the mortality ratio under setting [1] was 0% and the mortality ratio under setting [2] worked out at 90%. In the case of `CCCc1cc2c(cc1OCCOCC)OCO2` [The present compound (4), 5-(2-ethoxyethoxy)-6-propyl-1,3-benzodioxol], the mortality ratio runs as follows: under setting [1], 0%; under setting [2], 100%. As for `C=CCc1cc2c(cc1OCCOCC)OCO2` [The present compound (3), 5-(2-ethoxyethoxy)-6-(2-propenyl)-1,3-benzodioxol], the mortality ratio reads like this: under setting [1], 0%; under setting [2], 100%. On the same counts, the results for `CCCCOCCOc1cc2c(cc1CCC)OCO2` [Comparative compound, 4,5-methylenedioxy-2-propylphenyl2-butoxyethyl ether, reference compound] are 0% and 55%. In the same order, the values of `CCCc1cc2c(cc1OCCOC)OCO2` [The present compound (2), 5-(2-methoxyethoxy)-6-propyl-1,3-benzodioxol] are 0% and 90%. Regarding `C=CCC1=C(C)C(OC(=O)C2C(C=C(C)C)C2(C)C)CC1=O` (stereo not drawn) [d-allethrin, reference compound], where the note is “d-allethrin 0.25 % (w/v) alone, no test compound”, the mortality ratio was found to be 0%. Regarding `CCCOCCOc1cc2c(cc1CCC)OCO2` [The present compound (6), 5-{(2-propyloxy)ethoxy}-6-propyl-1,3-benzodioxol], the mortality ratio by setting is: under setting [1], 0%; under setting [2], 80%.
